Measured values: patent EP0284686A1, “Condensed triazoles, their preparation and their use as medicines” (BEECHAM GROUP PLC, priority 1986, dated 1988)

Key:
[1] = biological target: T1, RBL-1 5-lipoxygenase (Rattus norvegicus, UniProt P12527); assay: RBL-1 5-lipoxygenase screen; assay type: biochemical; settings: 10,000g supernatant from RBL-1 cells, formation of 5-HETE and 5,12-diHETE from [1-14C] arachidonic acid, read-out: Percentage inhibition of RBL-1 5-lipoxygenase at 20µM
T1 construct: 5-Lipoxygenase enzyme was prepared as a 10,000g supernatant from RBL-1 cells; endogenous in cells; host or cells: RBL-1 cells (10,000g supernatant of homogenate)
T1 sequence (P12527 1-673): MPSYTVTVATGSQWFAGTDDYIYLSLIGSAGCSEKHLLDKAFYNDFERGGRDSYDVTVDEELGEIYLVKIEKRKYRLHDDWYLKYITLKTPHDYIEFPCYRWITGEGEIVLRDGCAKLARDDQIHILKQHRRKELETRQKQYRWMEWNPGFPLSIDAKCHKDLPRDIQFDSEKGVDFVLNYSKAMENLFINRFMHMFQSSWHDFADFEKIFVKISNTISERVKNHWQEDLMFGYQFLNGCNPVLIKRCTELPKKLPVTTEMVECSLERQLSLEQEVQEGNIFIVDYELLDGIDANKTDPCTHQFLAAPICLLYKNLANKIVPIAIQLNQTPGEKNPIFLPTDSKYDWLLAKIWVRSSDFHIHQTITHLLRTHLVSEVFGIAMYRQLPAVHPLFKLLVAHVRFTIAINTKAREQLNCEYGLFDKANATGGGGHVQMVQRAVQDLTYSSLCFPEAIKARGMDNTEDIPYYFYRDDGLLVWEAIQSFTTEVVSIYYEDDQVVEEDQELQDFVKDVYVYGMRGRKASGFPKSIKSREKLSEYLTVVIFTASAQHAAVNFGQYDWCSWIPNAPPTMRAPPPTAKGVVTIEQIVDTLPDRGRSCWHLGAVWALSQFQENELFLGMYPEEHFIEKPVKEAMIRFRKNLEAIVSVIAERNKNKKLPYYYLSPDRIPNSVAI
Procedure: 5-Lipoxygenase enzyme was prepared as a 10,000g supernatant from RBL-1 cells by the method of Jakschik (Jakschik, B.A., F.F. Sun, L.M.Lee, and M.M. Steinhoff, 1980, Biochem. Biophys. Res.Comm. 95 103). The 10,000g supernatant was diluted with homogenization buffer to the equivalent of 1.5 - 2.5 × 10⁷ cells. ml.⁻¹ and made 2mM with respect to CaCl₂. Aliquots of 0.5ml were then dispensed into tubes, and incubated at 29°C with 5µl ethanol or compound in ethanol at the desired concentration for 2min. Then [1-¹⁴C] arachidonic acid was added in buffer to give a final concentration of 6.3µM and 0.2µCi per incubation, and the reaction continued at 29°C for 2min. The reaction was terminated by adding 1ml of acetone and cooling on ice, 0.5ml of ice-cold saline and 100µl of 2N formic acid were added, and the mixture was extracted with 2 × 2ml of chloroform. The extract was stored under N₂ at -20°C until analysis by chromatography. Activity was measured as the percentage of total radioactivity found in 5-HETE and 5,12-diHETE, and inhibition calculated as the decrease in formation of the sum of these two species in compound-treated incubates relative to control incubations.

[2] = tested on: passive peritoneal anaphylaxis; assay: Rat passive peritoneal anaphylaxis (PPA); assay type: in vivo; settings: i.p., final concentration 2×10⁻⁴M, contact time 2½ minutes
Procedure: The method is essentially similar to that described previously by Ross et al (Ross, Janet W., Smith, H. and Spicer, Barbara A. Increased vascular permeability during passive peritoneal anaphylaxis in the rat. Int. Arch. Allergy appl. Immun. 51, 226, 1976.)
Charles River Sprague Dawley male rats of 225-275 g and Dunkin Hartley male white guinea pigs of 250-300 g were used.
Charles River Sprague Dawley male rats of 225 - 275 g were given intraperitoneal injections of 0.5 ml of either Bordetella pertussis vaccine (4 × 10¹⁰ organisms/ml; Burroughs Wellcome, London) or Pertussis vaccine absorbed (not less than 41.u. B. pertussis antigen with aluminium hydroxide; The Lister Institute Elstree, England), and subcutaneous injections of 0.5ml of an emulsion of 100 mg of ovalbumin (chicken egg albumin; crystallised and lyophilised, grade V, Sigma, London) in 2ml of isotonic saline and 3ml of incomplete Freund's adjuvant. The rats were bled by cardiac puncture on day 18, the blood was pooled and the serum separated, stored at -20°C and thawed only once before use. The serum produced 72 hour passive cutaneous anaphylaxis activity in recipient rats to a dilution of 1:64 to 1:32 which was decreased to a dilution of less than 1:2 by heating at 56°C for 4 hours.
Rats were given intraperitoneal injections of 2 ml of a 1:5 dilution of the rat anti-serum in isotonic saline. Two hours later 0.3ml of 5% solution of Pontamine Sky Blue (Raymond A. Lamb, London) in isotonic saline was injected intraveneously, followed by an intraperitoneal injection of the test compound in 1 ml of saline; (control rats received 1 ml of saline); followed 2.5 minutes later by an intraperitoneal injection of 5 ml of a Tyrode solution containing 50µg/ml heparin and 0.4 mg/ml of ovalbumin. The concentrations of the compounds were quoted as that in the 6 ml of fluid injected intraperitoneally. […]
The optical densities (OD) of the supernatants which were not contaminated with blood were determined immediately at 625nm. […]

| inhibition at 20 µM [1] | SMILES | Percentage inhibition SRS-A ([2]; SRS-A in peritoneal fluid assayed on guinea pig ileum) | Percentage inhibition Dye ([2]; dye in peritoneal fluid (OD 625nm)) | Percentage inhibition Histamine ([2]; histamine in peritoneal fluid) |
| --- | --- | --- | --- | --- |
| 81% | Cc1ccc(O)c2nn(Cc3ccccc3)nc12 [Example 2, 2-Benzyl-4-hydroxy-7-methylbenzotriazole] | 49 | 30 | 45 |
| 89% | Cc1ccc(O)c2c1nnn2Cc1ccccc1 [Example 1, 3-Benzyl-4-hydroxy-7-methylbenzotriazole] | – | – | – |
